{
  "source": "paper PMC9844538",
  "about": "(Nature chemical biology, 2022)",
  "key": {"[1]": {"tested_on": "Mycobacterium tuberculosis H37Rv mc^26020", "test": "MIC, broth microdilution", "type": "cell-based", "details": "bleomycin susceptibility, value before the MIC shift"}, "mouse": {"tested_on": "mouse", "test": "Toxicity in a mouse", "type": "in vivo", "details": "intraperitoneally, 100 mg kg^−1, survival observed for 24 hours"}, "[2]": {"tested_on": "M. tuberculosis H37Rv mc^26020", "test": "Vitamin B12 competition assay", "type": "cell-based, Mycobacterium tuberculosis", "details": "1,000-fold molar excess of vitamin B12, 7 days, 37 °C"}, "M. tuberculosis": {"tested_on": "M. tuberculosis", "test": "Cell elongation, microscopy", "type": "cell-based, Mycobacterium tuberculosis"}, "E. coli WO153": {"tested_on": "E. coli WO153", "test": "Macromolecule incorporation assay", "type": "cell-based, Escherichia coli", "details": "8x MIC of evybactin"}, "[3]": {"tested_on": "M. tuberculosis H37Rv mc^26020", "test": "Time-dependent killing", "type": "cell-based, Mycobacterium tuberculosis"}, "[4]": {"target": "T1, M. tuberculosis gyrase (MtbGyrase) (Mycobacterium tuberculosis, UniProt P9WG45+P9WG47)", "T1 sequence (P9WG45 whole entry, looked up)": "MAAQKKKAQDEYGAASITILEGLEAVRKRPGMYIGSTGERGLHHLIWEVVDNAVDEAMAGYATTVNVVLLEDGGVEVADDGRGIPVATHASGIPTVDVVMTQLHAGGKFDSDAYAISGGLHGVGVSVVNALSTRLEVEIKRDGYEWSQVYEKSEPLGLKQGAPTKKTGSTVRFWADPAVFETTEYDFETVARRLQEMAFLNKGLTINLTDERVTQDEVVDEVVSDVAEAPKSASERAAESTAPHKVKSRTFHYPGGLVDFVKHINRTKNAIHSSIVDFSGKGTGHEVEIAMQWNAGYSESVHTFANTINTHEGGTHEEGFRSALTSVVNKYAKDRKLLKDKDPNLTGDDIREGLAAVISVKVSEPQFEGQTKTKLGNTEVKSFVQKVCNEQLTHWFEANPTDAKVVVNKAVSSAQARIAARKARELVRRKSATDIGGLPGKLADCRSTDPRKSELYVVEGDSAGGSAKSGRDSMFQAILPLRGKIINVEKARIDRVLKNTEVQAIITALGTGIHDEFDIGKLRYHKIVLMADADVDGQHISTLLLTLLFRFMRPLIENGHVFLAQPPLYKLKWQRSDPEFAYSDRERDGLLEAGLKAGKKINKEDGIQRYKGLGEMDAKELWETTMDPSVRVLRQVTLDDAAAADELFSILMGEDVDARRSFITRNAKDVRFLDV", "T1 sequence (P9WG47 whole entry, looked up)": "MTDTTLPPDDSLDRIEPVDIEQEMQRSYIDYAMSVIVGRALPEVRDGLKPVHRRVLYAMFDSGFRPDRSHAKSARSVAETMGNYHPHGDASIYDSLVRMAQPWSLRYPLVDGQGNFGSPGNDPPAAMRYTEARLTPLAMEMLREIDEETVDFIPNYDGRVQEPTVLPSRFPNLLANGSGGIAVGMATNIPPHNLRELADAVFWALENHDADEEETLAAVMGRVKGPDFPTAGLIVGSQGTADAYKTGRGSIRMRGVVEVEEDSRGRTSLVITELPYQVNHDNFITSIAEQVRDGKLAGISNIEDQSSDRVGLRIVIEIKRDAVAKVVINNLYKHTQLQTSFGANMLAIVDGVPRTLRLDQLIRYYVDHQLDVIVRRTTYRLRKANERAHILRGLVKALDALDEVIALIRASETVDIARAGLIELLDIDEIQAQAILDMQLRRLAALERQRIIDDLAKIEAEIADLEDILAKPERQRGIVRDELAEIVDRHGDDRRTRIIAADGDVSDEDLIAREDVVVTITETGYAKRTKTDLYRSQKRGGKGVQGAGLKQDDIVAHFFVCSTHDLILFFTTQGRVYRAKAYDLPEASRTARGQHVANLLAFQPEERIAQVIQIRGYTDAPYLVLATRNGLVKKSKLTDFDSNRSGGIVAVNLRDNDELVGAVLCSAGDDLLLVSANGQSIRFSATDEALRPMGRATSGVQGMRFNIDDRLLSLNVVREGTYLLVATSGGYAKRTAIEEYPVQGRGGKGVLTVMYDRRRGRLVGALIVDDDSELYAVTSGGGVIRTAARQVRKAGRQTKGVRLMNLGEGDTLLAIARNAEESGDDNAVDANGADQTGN", "type": "biochemical", "details": "no ATP"}, "[5]": {"target": "T1, M. tuberculosis gyrase (MtbGyrase)", "test": "Supercoiling assay", "type": "biochemical"}, "E. coli gyrase": {"target": "E. coli gyrase (Escherichia coli, UniProt P0AES4+P0AES6)", "test": "Supercoiling assay", "type": "biochemical", "details": "100 μM evybactin, 0–20 nM enzyme, strong cleavage visible at 5 nM enzyme"}, "E. coli topo IV": {"target": "E. coli topo IV (Escherichia coli, UniProt P0AFI2+P20083)", "sequence (P0AFI2 whole entry)": "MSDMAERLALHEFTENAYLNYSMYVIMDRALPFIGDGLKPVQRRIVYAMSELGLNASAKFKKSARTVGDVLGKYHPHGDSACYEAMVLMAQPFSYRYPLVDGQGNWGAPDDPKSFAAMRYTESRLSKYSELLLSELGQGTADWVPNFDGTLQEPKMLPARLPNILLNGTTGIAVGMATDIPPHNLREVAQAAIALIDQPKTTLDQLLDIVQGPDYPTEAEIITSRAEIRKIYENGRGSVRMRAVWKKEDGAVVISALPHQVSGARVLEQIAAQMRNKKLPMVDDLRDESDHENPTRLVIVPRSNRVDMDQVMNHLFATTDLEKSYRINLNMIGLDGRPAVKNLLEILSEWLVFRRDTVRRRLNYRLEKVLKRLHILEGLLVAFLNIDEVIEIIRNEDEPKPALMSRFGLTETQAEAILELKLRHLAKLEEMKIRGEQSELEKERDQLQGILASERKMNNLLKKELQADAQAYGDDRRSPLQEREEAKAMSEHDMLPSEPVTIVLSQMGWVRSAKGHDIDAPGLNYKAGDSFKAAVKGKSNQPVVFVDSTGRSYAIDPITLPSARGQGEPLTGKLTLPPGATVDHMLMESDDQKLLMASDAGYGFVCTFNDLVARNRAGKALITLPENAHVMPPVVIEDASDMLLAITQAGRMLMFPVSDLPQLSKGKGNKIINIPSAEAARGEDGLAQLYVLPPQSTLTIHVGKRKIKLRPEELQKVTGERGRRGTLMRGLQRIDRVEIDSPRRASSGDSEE", "sequence (P20083 whole entry)": "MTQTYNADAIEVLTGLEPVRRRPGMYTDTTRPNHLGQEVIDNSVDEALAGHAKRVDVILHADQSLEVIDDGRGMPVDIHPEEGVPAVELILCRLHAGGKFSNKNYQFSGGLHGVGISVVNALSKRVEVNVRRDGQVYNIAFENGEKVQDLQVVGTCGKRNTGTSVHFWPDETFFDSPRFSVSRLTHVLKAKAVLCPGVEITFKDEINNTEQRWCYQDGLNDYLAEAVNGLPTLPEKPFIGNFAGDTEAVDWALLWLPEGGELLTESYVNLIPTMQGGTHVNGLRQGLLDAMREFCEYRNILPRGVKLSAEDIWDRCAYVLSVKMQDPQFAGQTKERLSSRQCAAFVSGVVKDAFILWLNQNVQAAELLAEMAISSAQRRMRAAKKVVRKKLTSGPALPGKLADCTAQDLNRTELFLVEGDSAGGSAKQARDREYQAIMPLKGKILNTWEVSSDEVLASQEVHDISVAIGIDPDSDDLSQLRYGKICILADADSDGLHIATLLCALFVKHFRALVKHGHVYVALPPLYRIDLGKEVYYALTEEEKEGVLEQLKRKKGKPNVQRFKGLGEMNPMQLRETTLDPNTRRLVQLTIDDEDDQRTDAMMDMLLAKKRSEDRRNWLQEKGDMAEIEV", "test": "Supercoil relaxation assay", "type": "biochemical", "details": "100 μM evybactin, 0–20 nM enzyme"}, "[6]": {"tested_on": "commensal bacteria, including Lactobacillus sp. and Bacteroides sp.", "test": "Activity against commensal bacteria", "type": "cell-based"}, "MtbGyrase": {"target": "MtbGyrase (Mycobacterium tuberculosis, UniProt P9WG45+P9WG47)", "sequence (P9WG45 whole entry, looked up)": "as the sequence (P9WG45 whole entry, looked up) above", "sequence (P9WG47 whole entry, looked up)": "as the sequence (P9WG47 whole entry, looked up) above", "type": "biochemical"}},
  "note": "Starred links: 1 amine or outer side, 2 acyl side, 3 side chain; linkers in the order of their positions; H or OH if unused. Positions of bridges follow the written chain, without caps; N, C: chain ends. Non-standard residues stand in square brackets, D forms with d. Residues, ends and D or L forms follow the SMILES beside them. *: point of attachment. βAsp = O=C(O)[C@H](CC(=O)[*:2])N[*:1]; His(π-Me) = Cn1cncc1C[C@H](N)C(=O)O; For = O=C*",
  "data": [
    {"molecule": "bleomycin", "values": [
      {"measurement": "MIC (before shift)", "setting": "[1]", "value": 0.06, "unit": "µg/mL"}
    ]},
    {"molecule": "C[C@@H](O)[C@H](NC(=O)[C@H](Cc1c[nH]c2ccccc12)NC=O)C(=O)N[C@H](CCCNC(=N)N)C(=O)N[C@@H]1C(=O)N[C@@H](Cc2cncn2C)C(=O)N[C@H](C(=O)O)CC(=O)N[C@H](CO)C(=O)N[C@@H](Cc2ccccc2)C(=O)NCC(=O)N[C@H](CCCNC(=N)N)C(=O)N[C@@H](CO)C(=O)N[C@H](C(=O)O)CC(=O)O[C@@H]1C", "note": "[evybactin] (For-WT[dR]T[His(π-Me)][βAsp][dS]FG[dR]S[βAsp]; ester 4-C)", "values": [
      {"measurement": "toxicity, survival", "setting": "mouse", "value": "no indications of toxicity"},
      {"measurement": "effect of vitamin B12 on evybactin susceptibility", "setting": "[2]", "value": "no change in the susceptibility"},
      {"measurement": "cell length versus non-treated cells", "setting": "M. tuberculosis", "value": "approximately two times longer"},
      {"measurement": "DNA synthesis (^14C-thymidine incorporation)", "setting": "E. coli WO153", "value": "inhibits DNA synthesis"},
      {"measurement": "RNA, protein and fatty acid synthesis (label incorporation)", "setting": "E. coli WO153", "value": "less of an effect"},
      {"measurement": "killing ability", "setting": "[3]", "value": "highly bactericidal"},
      {"measurement": "DNA cleavage in the absence of ATP", "setting": "[4]", "value": "little to no cleavage"},
      {"measurement": "supercoiling activity and DNA cleavage", "setting": "[5]", "value": "inhibited the supercoiling activity"},
      {"measurement": "DNA cleavage", "setting": "E. coli gyrase", "value": "stimulated DNA cleavage"},
      {"measurement": "DNA cleavage", "setting": "E. coli topo IV", "value": "stimulated DNA cleavage"},
      {"measurement": "activity against commensal bacteria", "setting": "[6]", "value": "no activity"},
      {"measurement": "toxicity against human cells", "setting": "HepG2", "value": "no toxicity"},
      {"measurement": "toxicity against human cells", "setting": "FaDu", "value": "no toxicity"},
      {"measurement": "toxicity against human cells", "setting": "HEK293", "value": "no toxicity"},
      {"measurement": "solubility", "setting": "Solubility in water", "value": "> 40", "unit": "mg/mL"}
    ]},
    {"molecule": "COc1c(N2C[C@@H]3CCCN[C@@H]3C2)c(F)cc2c(=O)c(C(=O)O)cn(C3CC3)c12", "note": "[moxifloxacin]", "values": [
      {"measurement": "ATPase rate (Vmax)", "setting": "MtbGyrase", "value": "0.4 ± 0.1 molecules of ATP per second per enzyme"}
    ]}
  ]
}
